From article PMC6013238, “Development of novel NEMO-binding domain mimetics for inhibiting IKK/NF-κB activation” (PLoS Biology, 2018)
Values joined by “and” are separate entries in the source; they are usually repeats but may differ in a detail not shown here. Identical values can stand only once. Like-named read-outs stand apart in the source and are kept apart here.

Columns and labels:
[1] = Body weight of chronically treated mdx mice; settings: in g (unit assumed); for Body weight AVG: group average (FigS3A); for Body weight: individual mouse (FigS3A)
[2] = Plasma and tissue concentrations 2 h after a single i.p. injection; assay type: in vivo, mouse; settings: for concentration at 2 h: male, C57BL/6J, mouse, ip, 10 mg/kg
Experimental: To determine the stability of the NBD mimetics in vivo, their levels were measured in the plasma of mice 2 h post i.p. injection with 10 mg/kg of each compound. The concentration of SR12460 was very high in plasma (>6.5 μg/mL; 20 μM), while levels in brain, muscle, spleen, and liver were lower. SR12343 and SR12454 had lower plasma concentrations, with SR12343 showing a higher level in liver and SR12454 showing higher concentrations in muscle and spleen. The level of SR11481 was undetectable in plasma and tissues (Fig 6A).
Fig 6 Newly identified NBD mimetics suppress LPS-induced acute inflammation in vivo. (A) The bioavailability property of SR12460, SR12343, SR12454, and SR11481. Concentrations of NBD mimetics were determined in plasma, brain, muscle, spleen, and liver 2 h post a single i.p. injection of 10 mg/kg of drugs; n = 3 per group. (B) Shown is the model to induce LPS-mediated acute inflammation and the treatment regimen with NBD mimetics. Mouse image via http://www.clker.com/clipart-mice-blank.html (copyright-free). (C) NBD mimetics suppressed LPS-induced acute inflammation in liver and lung by down-regulating NF-κB target gene expression. Vehicle, SR12343, SR12460, and 8K-NBD peptide were dosed at 10 mg/kg 30 min prior to the LPS treatment. Acute inflammation was induced by i.p. injection of 10 mg/kg LPS. Lung and liver were collected 2–4 h post injection, and mRNA was extracted for qRT-PCR analysis. (D, E) Western blot analysis was performed to probe for the expression of p-IκBα and COX-2 at protein level in liver and lung tissues. (F) Serum levels of IL-6 were determine by ELISA. n = 3–8 each group. *P < 0.05, **P < 0.01. Underlying data can be found in S1 Data. COX-2, cyclooxygenase 2; IL-6, interleukin 6; i.p., intraperitoneal; LPS, lipopolysaccharide; NBD, NEMO-binding domain; n.d., nondetectable; NEMO, NF-κB essential modulator; NF-κB, nuclear factor κB; qRT-PCR, quantitative real-time polymerase chain reaction. TEXT PRINTED IN THE PICTURE: (A) SR11481: Concentration (ng/ml): n.d. (plasma)
The pharmacokinetic profile of the NBD mimetics was determined in male C57BL/6J mice (n = 3). The drugs were formulated in 10:10:80 of DMSO:Tween 80:water and were dosed by i.p. injection at a final dose of 10 mg/kg. Blood, brain, muscle, spleen, and liver were collected 2 h post treatment and were analyzed by mass spectrometry by following a protocol previously described.

[3] = 2 h post single i.p. 10 mg/kg, single mice
[4] = plasma, 2 h post single i.p. 10 mg/kg, single mice, read-out: Concentration in plasma
[5] = spleen, 2 h post single i.p. 10 mg/kg, single mice, read-out: Concentration in spleen

With `O=C(CNCCc1cc(F)cc(F)c1)Nc1ccc(Cl)cn1` [SR12460] the “Body weight AVG” value ([1]; Day 21) was 8.34, the Body weight ([1]; Day 21) was 8.5 and 8.8 and 6.9 and 9 and the “Body weight AVG” value ([1]; Day 23) was 9.96. The Body weight ([1]; Day 23) was 10.5 and 9.7 and 8.5 and 10.3 and 10.8, the “Body weight AVG” value ([1]; Day 26) was 11.42 and the Body weight ([1]; Day 26) was 12.6 and 10.7 and 10.9 and 11.3 and 11.6. For the same compound, the “Body weight AVG” value ([1]; Day 28) was 13.58, the Body weight ([1]; Day 28) was 14.1 and 14.6 and 13.2 and 12.6 and 13.4 and the “Body weight AVG” value ([1]; Day 30) was 14.92. The Body weight ([1]; Day 30) was 16.1 and 13.5 and 14.9 and 14.4 and 15.7, the “Body weight AVG” value ([1]; Day 32) was 18.56 and the Body weight ([1]; Day 32) was 20.3 and 16.4 and 20.2 and 18.3 and 17.6. For the same compound, the “Body weight AVG” value ([1]; Day 34) was 19.58, the Body weight ([1]; Day 34) was 21 and 17.1 and 21.1 and 18.8 and 19.9 and the “Body weight AVG” value ([1]; Day 37) was 20.22. For the same compound, the Body weight ([1]; Day 37) was 22.2 and 18.3 and 19.3 and 19.1, the “Body weight AVG” value ([1]; Day 39) was 21.5333 and the Body weight ([1]; Day 39) was 22.3 and 18.8 and 23.5. The “Body weight AVG” value ([1]; Day 41) was 22.4, the Body weight ([1]; Day 41) was 23.1 and 19.5 and 24.6 and the “Body weight AVG” value ([1]; Day 44) was 22.7333. The Body weight ([1]; Day 44) was 23.7 and 19.3 and 25.2, the “Body weight AVG” value ([1]; Day 46) was 23.7 and the Body weight ([1]; Day 46) was 25 and 20.1 and 26. For the same compound, the Concentration in liver [2, 3] was 265 ng/mL and 390 ng/mL, the Concentration in muscle [2, 3] was 602 ng/mL and 852 ng/mL and the Concentration in plasma [2, 3] was 5470 ng/mL and 7970 ng/mL. For the same compound, the Concentration in spleen [2, 3] was 905 ng/mL and 1250 ng/mL, the concentration at 2 h ([2]; liver, 2 h post single i.p. 10 mg/kg, single mice, read-out: Concentration in liver) was 442 ng/mL and the concentration at 2 h ([2]; muscle, 2 h post single i.p. 10 mg/kg, single mice, read-out: Concentration in muscle) was 846 ng/mL. For the same compound, the concentration at 2 h ([2]; plasma, 2 h post i.p. 10 mg/kg, read-out: Concentration in plasma) was > 6500 ng/mL and 20 µM, the concentration at 2 h [2, 4] was 6520 ng/mL and the concentration at 2 h [2, 5] was 930 ng/mL.

In the case of `O=C(CNc1ccc(Cl)cn1)NCCc1cccc(Br)c1` [SR12343], the “Body weight AVG” value ([1]; Day 21) is reported as 8.8, the Body weight ([1]; Day 21) is reported as 8.1 and 9 and 8.6 and 10 and 8.3 and the “Body weight AVG” value ([1]; Day 23) is reported as 10.48. The Body weight ([1]; Day 23) was 9.5 and 11.4 and 9.8 and 10.7 and 11, the “Body weight AVG” value ([1]; Day 26) was 12.2 and the Body weight ([1]; Day 26) was 10.8 and 13.9 and 12.3 and 11.7. The “Body weight AVG” value ([1]; Day 28) was 13.48, the Body weight ([1]; Day 28) was 12.7 and 14.8 and 12.2 and 13.2 and 14.5 and the “Body weight AVG” value ([1]; Day 30) was 15.66. The Body weight ([1]; Day 30) was 12.5 and 17.3 and 16.6 and 15.5 and 16.4, the “Body weight AVG” value ([1]; Day 32) was 18.96 and the Body weight ([1]; Day 32) was 16.4 and 21.5 and 20 and 18 and 18.9. For the same compound, the “Body weight AVG” value ([1]; Day 34) was 19.78, the Body weight ([1]; Day 34) was 16.9 and 22.5 and 20.5 and 19.4 and 19.6 and the “Body weight AVG” value ([1]; Day 37) was 20.46. For the same compound, the Body weight ([1]; Day 37) was 18.3 and 23 and 21.4 and 19.4 and 20.2, the “Body weight AVG” value ([1]; Day 39) was 21.7333 and the Body weight ([1]; Day 39) was 18.2 and 24.1 and 22.9. The “Body weight AVG” value ([1]; Day 41) was 22.4, the Body weight ([1]; Day 41) was 19.6 and 25 and 22.6 and the “Body weight AVG” value ([1]; Day 44) was 22.9667. The Body weight ([1]; Day 44) was 20 and 24.7 and 24.2, the “Body weight AVG” value ([1]; Day 46) was 22.8667 and the Body weight ([1]; Day 46) was 21 and 24 and 23.6. The Concentration in brain [2, 3] was 45.7 ng/mL and 29.2 ng/mL, the Concentration in plasma [2, 3] was 14.7 ng/mL and 8.4 ng/mL and the Concentration in spleen [2, 3] was 26.6 ng/mL and 25.1 ng/mL. It also gave a concentration at 2 h ([2]; brain, 2 h post single i.p. 10 mg/kg, single mice, read-out: Concentration in brain) of 31.8 ng/mL, a concentration at 2 h [2, 4] of 14.3 ng/mL and a concentration at 2 h [2, 5] of 24.7 ng/mL.
